“And” between values parts separate entries of the source, which are not always exact repeats. Equal values may be shown once.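 Five compound concentrations were applied to cells in 96-well plates for 48 hours; endpoints were derived by simple linear interpolation of the resulting dose-response curve. Abbreviation: GI50, concentration required for 50% inhibition of growth. TGI: total growth inhibition.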
Legend:
Experiment in all cases: NCI anticancer screen, dose series, 48 h
HS 578T breast = tested on: HS 578T breast
MDA-N = tested on: MDA-N
DMS 114 small cell lung = tested on: DMS 114 small cell lung
DMS 273 small cell lung = tested on: DMS 273 small cell lung
KM20L2 colon = tested on: KM20L2 colon
LXFL 529 NSCLC = tested on: LXFL 529 NSCLC
M19-MEL melanoma = tested on: M19-MEL melanoma
XF 498 CNS = tested on: XF 498 CNS
RXF-631 renal = tested on: RXF-631 renal

| SMILES | TGI (HS 578T breast) | GI50 (HS 578T breast) | TGI (DMS 273 small cell lung) [µM] | TGI (KM20L2 colon) | TGI (LXFL 529 NSCLC) [µM] | TGI (M19-MEL melanoma) [µM] | also measured |
| --- | --- | --- | --- | --- | --- | --- | --- |
| COc1ccc(-c2cc(=O)c3c(OC)c(OC)c(OC)cc3o2)cc1 | > 100 µM |  |  |  |  |  | TGI (MDA-N): > 100 µM |
| COc1cc2c(c(O)c1Br)C(=O)c1c(O)cc(C[C@H](C)O)cc1[C@H]2[C@H]1c2cc(C[C@H](C)O)cc(O)c2C(=O)c2c1cc(OC)c(Br)c2O | 67.5 µM and 65.9 µM | 2.99 µM and 4.1 µM |  |  |  |  |  |
| CCN(CC)CCOc1ccc(/C(=C(\Cl)c2ccccc2)c2ccccc2)cc1 | 19.4 µM and 17.7 µM | 5.25 µM and 3.15 µM |  |  |  |  |  |
| CC[CH2][Sn]([CH2]CC)([O]C(=O)c1cccnc1SC)[O][Sn]([CH2]CC)([CH2]CC)[O]C(=O)c1cccnc1SC | 6.36 µM | 1.5 µM | 1.69 | 2.11 µM | 0.155 | 0.337 | GI50 (DMS 114 small cell lung): 0.0726 µM; TGI (DMS 114 small cell lung): 0.222 µM; GI50 (DMS 273 small cell lung): 0.367 µM; GI50 (KM20L2 colon): 0.775 µM; GI50 (LXFL 529 NSCLC): 0.0198 µM; GI50 (M19-MEL melanoma): 0.0833 µM; GI50 (MDA-N): 1.27 µM; TGI (MDA-N): 2.52 µM; GI50 (XF 498 CNS): 0.159 µM; TGI (XF 498 CNS): 0.296 µM |
| CCc1ccc(/C=C\c2cc(OC)c(OC)c(OC)c2)cc1 | 0.106 µM |  | 0.994 | 0.125 µM and 0.032 µM | 27.3 | > 100 | GI50 (DMS 114 small cell lung): 0.0156 µM; TGI (DMS 114 small cell lung): 0.228 µM and 0.057 µM; GI50 (KM20L2 colon): 0.0164 µM; GI50 (LXFL 529 NSCLC): 0.0233 µM; GI50 (M19-MEL melanoma): 0.0392 µM; TGI (MDA-N): 0.00395 µM |
| CC/C(=C(/c1ccc(O)cc1)c1ccc(OCCNC)cc1)c1ccccc1 | 5.16 µM | 1.87 µM |  |  |  |  |  |
| O=C(O)CNS(=O)(=O)c1ccc(NCc2ccccc2)cc1 |  |  | > 100 | > 100 µM | > 100 | > 100 | TGI (DMS 114 small cell lung): > 100 µM; TGI (XF 498 CNS): > 100 µM |
| FC(F)(F)c1cccc(Nc2nccc(-c3cnn4nc(-c5ccccc5)ccc34)n2)c1 | > 20.3 µM | 7.38 µM |  |  |  |  |  |
| O=C1Nc2c(C(F)(F)F)cccc2[C@]1(c1ccc(O)cc1)c1ccc(OC(F)(F)F)cc1 | 5.89 µM | 1.44 µM |  |  |  |  |  |
| COc1cc(C2NC(=O)c3ccccc3N2)ccc1OCCCCCOc1c(OC)cc(C2=NOC(c3cc(OC)c(OC)c(OC)c3)C2)cc1OC (stereo not given) | > 82 µM | 15.7 µM |  |  |  |  |  |
| CC[C@@H]1C(=O)N(C)c2cnc(Nc3ccc(C(=O)NC4CCN(C)CC4)cc3OC)nc2N1C1CCCC1 | 0.394 µM and 0.475 µM | 0.00842 µM and 0.0188 µM |  |  |  |  |  |
| O=C(c1ccccc1)c1nnc(C(=O)c2ccccc2)nn1 |  |  | > 344 | > 344 µM | > 344 | > 344 |  |
| COc1ccc(-c2cc(=O)c3ccc(O)cc3o2)cc1OC | > 100 µM |  |  |  |  |  | TGI (MDA-N): > 100 µM |
| O=c1[nH]ncc(Br)c1Br | 9.51 µM | 2.23 µM |  |  |  |  |  |
| CC(=O)CNC(=O)OC(C)(C)C |  |  | > 100 | > 100 µM |  | > 100 | TGI (DMS 114 small cell lung): > 100 µM; TGI (XF 498 CNS): > 100 µM |
| Oc1c(CN2CCC(N3CCCCC3)CC2)cc(Cc2cc(CN3CCC(N4CCCCC4)CC3)c(O)c3ncccc23)c2cccnc12 | 28.7 µM | 4.67 µM |  |  |  |  |  |
| Brc1cccc(C=NC23CC4CC(CC(C4)C2)C3)c1 |  |  | > 100 | > 100 µM | > 100 | > 100 | TGI (DMS 114 small cell lung): > 100 µM; TGI (XF 498 CNS): > 100 µM |
| Cn1c(=O)c2[nH]c(SCc3ccccn3)nc2n(C)c1=S | > 100 µM |  |  |  |  |  | TGI (MDA-N): > 100 µM |
| Oc1ccc(CN2CCC(N3CCCCC3)CC2)c2cccnc12 | > 100 µM | 17.6 µM |  |  |  |  |  |

| SMILES | TGI (HS 578T breast) | GI50 (HS 578T breast) | TGI (DMS 273 small cell lung) [µM] | TGI (KM20L2 colon) | TGI (LXFL 529 NSCLC) [µM] | TGI (M19-MEL melanoma) [µM] | also measured |
| --- | --- | --- | --- | --- | --- | --- | --- |
| O=C1NC2OC(CO)C(O)C(O1)C2O (stereo not given) |  |  | > 100 | > 100 µM | > 100 | > 100 | TGI (DMS 114 small cell lung): > 100 µM; TGI (XF 498 CNS): > 100 µM |
| CCC(C)c1c(Cl)nc(Cl)nc1Cl (stereo not given) | > 100 µM |  |  |  |  |  | TGI (MDA-N): 23.8 µM |
| N#CSc1c[nH]c2cccc(/C=C/C(=O)/C=C(/C=C/c3cccc4[nH]cc(SC#N)c34)OB(F)F)c12 | > 58.6 µM | 2.17 µM |  |  |  |  |  |
| Cn1c2ccccc2c2c(-c3ccccc3)[n+]3ccncc3nc21 | > 100 µM | 87.5 µM |  |  |  |  |  |
| [Cl-].[Dy+3].[O-]/N=C(\c1ccccc1)c1ccccn1.[O-]/N=C(\c1ccccc1)c1ccccn1.[O-]/N=C(\c1ccccc1)c1ccccn1 |  |  | > 100 | > 100 µM | > 100 | 94.6 | GI50 (DMS 114 small cell lung): 24.6 µM; TGI (DMS 114 small cell lung): 77.6 µM; GI50 (DMS 273 small cell lung): 29.8 µM; GI50 (KM20L2 colon): 42 µM; GI50 (LXFL 529 NSCLC): 41.2 µM; GI50 (M19-MEL melanoma): 31.3 µM |
| CC[C@]1(O)C[C@@H]2CN(CCc3c([nH]c4ccccc34)[C@@](C(=O)OC)(c3cc4c(cc3OC)N(C)[C@H]3[C@@](O)(C(=O)OC)[C@H](OC(C)=O)[C@]5(CC)C=CCN6CC[C@]43[C@@H]65)C2)C1 | 10.8 µM | < 0.01 µM |  |  |  |  |  |
| COc1ccc(C2=CC3CCC2C3)cc1 (stereo not given) |  |  | > 100 |  | > 100 |  | TGI (XF 498 CNS): > 100 µM |
| O=c1c2cc([N+](=O)[O-])ccc2sc2ccsc12 |  |  |  | > 100 µM | > 100 | > 100 | TGI (DMS 114 small cell lung): > 100 µM; TGI (RXF-631 renal): > 100 µM; TGI (XF 498 CNS): > 100 µM |
| O/N=C/C1c2ccccc2-c2ccccc21 | 47.6 µM |  |  |  |  |  | TGI (MDA-N): 31.9 µM |
| Cc1ccc2c(c1)[n+]([O-])c(N)n[n+]2[O-] | > 100 µM |  |  |  |  |  | TGI (MDA-N): > 100 µM |
| O=C1CCCCN1CCCCC#Cc1ccccc1C#Cc1ccc([N+](=O)[O-])cc1 | 23.5 µM | 5.05 µM |  |  |  |  |  |
| NC(=O)c1ccc(I)c(N)c1 | > 100 µM | > 100 µM |  |  |  |  |  |
| COc1ccc(NC2=CC(=O)C(=O)c3ccccc32)nn1 | > 100 µM |  |  |  |  |  | TGI (MDA-N): 1.16 µM |
| OCC(O)CC[CH2][Sn]([Br])([c]1ccccc1)[c]1ccccc1 (stereo not given) |  |  | > 100 | > 100 µM | > 100 | > 100 | GI50 (DMS 273 small cell lung): > 100 µM; GI50 (KM20L2 colon): > 100 µM; GI50 (LXFL 529 NSCLC): 88.5 µM; GI50 (M19-MEL melanoma): > 100 µM; GI50 (XF 498 CNS): > 100 µM; TGI (XF 498 CNS): > 100 µM |
| COC(=O)/C=C/c1cc(OC)c(OC)c(OC)c1 |  |  | > 100 | > 100 µM | > 100 | > 100 | TGI (DMS 114 small cell lung): > 100 µM; TGI (RXF-631 renal): > 100 µM; TGI (XF 498 CNS): > 100 µM |
| Nc1cc(N)c2nc(-c3ccccc3)c(Nc3ccc(Cl)c(Cl)c3)nc2c1 | 51.7 µM | 18.9 µM |  |  |  |  |  |
| O=C(N/N=C/c1ccccc1O)c1ccccc1Nc1ccnc(C(F)(F)F)c1 | > 100 µM | 12.9 µM |  |  |  |  |  |
| O=C1/C(=C/c2ccccc2)CNC/C1=C\c1ccccc1 |  |  | 2 | 3.09 µM | 3.58 | 2.72 | TGI (DMS 114 small cell lung): 8.36 µM; TGI (RXF-631 renal): 13 µM; TGI (XF 498 CNS): 6.41 µM |
